The COVID Moonshot data (paper PMC11187573), “Identification of SARS-CoV-2 Mpro inhibitors through deep reinforcement learning for de novo drug design and computational chemistry approaches” (RSC Medicinal Chemistry, 2024)

Key:
[1] = target: SARS-CoV-2 Main Protease (SARS-CoV-2) (UniProt P0DTD1)
[2] = target: SARS-CoV-2 Main Protease (SARS-CoV-2) (UniProt P0DTD1); remark: listed apart in the source
Method: Compounds were seeded into assay-ready plates (Greiner 384 low volume, cat 784900) using an Echo 555 acoustic dispenser, and DMSO was back-filled for a uniform concentration in assay plates (DMSO concentration maximum 1%) Screening assays were performed in duplicate at 20µM and 50µM. […] Dose response assays were performed in 12 point dilutions of 2-fold, typically beginning at 100µM. […] Reagents for Mpro assay were dispensed into the assay plate in 10µl volumes for a final volume of 20µL.
Mpro was pre-incubated for 15 minutes at room temperature with compound before addition of substrate and a further 30 minute incubation. Protease reaction was measured in a BMG Pherastar FS with a 480/520 ex/em filter set. Raw data was mapped and normalized to high (Protease with DMSO) and low (No Protease) controls using Genedata Screener software.

Row | Structure (SMILES) | relative solubility at 20 uM | relative solubility at 100 uM | IC50 [1] [µM] | inhibition ([1]; 50.0 µM) [%] | IC50 [2] [µM] | inhibition ([2]; 20.0 µM) [%] | inhibition ([2]; 50.0 µM) [%] | inhibition ([1]; 20.0 µM) [%]
1 | O=C(CCl)N1CCN(C(c2ccccc2)C2CCCCC2)CC1 (stereo unspecified) | 0.98 | 0.78 | 0.644 | 95.6 | 4.13 | 95.8 | 98.1 | 
2 | O=C(c1cc(=O)[nH]c2ccc(Cl)cc12)N1CCN(S(=O)(=O)c2ccccc2)CC1 | 0.94 | 0.93 |  | 22.8 |  | 10.6 | 23.9 | 
3 | C=CC(=O)N(c1ccc(C2(C)CC2)cc1)C(C(=O)Nc1cccc(CC)c1)c1cccnc1 (stereo unspecified) | 0.86 | 0.65 |  | 47.2 |  |  | 21 | 4.53
4 | C=CC(=O)N(c1ccc(C(C)(C)C)cc1)C(C(=O)NCc1cccnc1)c1cccnc1 (stereo unspecified) | 1 | 0.96 |  | 61.3 |  | 41.2 | 59.3 | 18.2
5 | Cc1ccncc1NC(=O)Cc1cc(Cl)c2c(c1)OCCO2 | 1 | 1 |  | 10.9 |  | 9.83 | 22.2 | 
6 | O=C(Cc1cccnc1)Nc1cccc(OC2CC(=O)N2)c1 (stereo unspecified) | 0.97 | 0.99 |  | 26.4 |  | 39.6 | 71.8 | 
7 | Cc1cc(C)cc(CS(=O)(=O)N[C@@]23COC[C@@H]2C3)c1 (stereo in doubt) | 1 | 1 |  | 0 |  | 6.03 | -9.38 | 
8 | CC(=O)NCCc1cn(CC(=O)N2CCOCC2)c2ccccc12 | 0.97 | 0.96 |  | 0 |  |  | 6.56 | 0
9 | O=C(NCCc1ccc2c(c1)CCO2)NCc1cccc(N2C(=O)NC3(CCCC3)C2=O)c1 | 0.95 | 0.97 |  | -30.5 |  | -29 | -12 | 
10 | Cc1ccncc1NC(=O)C(C)(C)c1cccc(Cl)c1 | 1 | 1 | 24.5 | 66.9 |  | 49.3 | 68 | 
11 | C=CC(=O)N(c1ccc(C(C)(C)C)cc1)C(C(=O)NCCC(=O)OCC)c1cccnc1 (stereo unspecified) | 0.99 | 0.97 |  | 43.7 |  | 27.8 | 46.3 | 12.3
12 | Cc1ccccc1CNc1ccccc1NC(=O)C(O)c1cccnc1 (stereo unspecified) | 0.95 | 0.94 |  | 35.7 |  | -0.056 | 7.28 | 4.59
13 | CC(NC(=O)C(Cc1ccccc1)NC(=O)c1ccco1)c1ncco1 (stereo unspecified) | 1 | 1 |  | 0 |  |  | -28 | 0
14 | O=C(CC(=O)Nc1ccncc1)Nc1ccccc1 | 1 | 1 |  | 0 |  |  | 12 | 0
15 | CCC(NC(=O)NCc1cnccn1)c1ccccc1OCC(=O)N1CCCC1 (stereo unspecified) | 1 | 1 |  | 9.2 |  |  | 7.61 | 0
